# From patent US12324839B2, “Testosterone-inducing peptide compounds and associated combinations” (THE ROYAL INSTITUTION FOR THE ADVANCEMENT OF …, priority 2018, dated 2025)
# Square brackets hold non-standard residues; d marks the D form. Peptide text beside a SMILES is read from it.
# How the values were obtained:
# [1] = Oral pharmacokinetics after single oral dose; type: in vivo, Brown-Norway rats; conditions: single oral dose of 10 mg peptide, gavage
# Description: (§1) For all oral experiments, administration via gavage began between 8:30-8:50 am with a 3-minute delay between each rat. Animals used for pharmacokinetic studies were fasted for 4 hrs before starting gavage at 1 pm with a 3-minute delay between each rat.
# For oral pharmacokinetic experiments, jugular blood samples were collected following a single oral dose of 10 mg peptide in 1 ml of vehicle after 5, 15, 30, 45, 60, 90, and 120 minutes. Protein inhibitor cocktail (ROCHE, cOmplete protein inhibitors, Cat #11697498001), which was added into the EDTA collection tubes, was used for KVSQ and RVTQ peptides. Plasma was immediately extracted, and 100 μL of plasma were crashed with 300 μL of 100% methanol, spun at 14 000 RPM for 10 min, and the supernatant harvested. Re-extraction of the precipitant and solubilization of the pellet were as described above.
# The analytical instrumentation consisted of a Thermo-Scientific ISQ Quantiva Triple Quadrupole Mass Spectrometer (QQQ), incorporating a heated electrospray ionization (HESI) source, and a Thermo-Scientific UltiMate™ 3000 UHPLC system (including, UltiMate™ 3000 RS autosampler). Analytical conditions were developed using a reference standard in a solution containing 5 μM of the corresponding peptide. The chromatography was resolved by isocratic elution of a binary solvent system incorporating (A) 0.1% Formic Acid (aq) and (B) ACN+0.1% FA and using an Agilent Eclipse Plus™ C18 analytical column (100 mm×2.1 mm ID, 1.8 μm particle). A 5 μL injection volume and solvent flow rate of 150 μL/min were used. The MS/MS acquisition time was 7 min and total run time was 8.3 min/injection. The triple Quadrupole MS/MS instrumentation conditions were as follows: the HESI source voltage was 3200 V, the sheath gas […], auxiliary gas 20 L/min, sweep gas 2.0 L/min, the ion transfer temperature was 350° C., the vaporizer temperature was 350° C., the CID gas was 1.5 (mTorr) and the dwell time was 100 msec. The Q1 Resolution (FWHM) was 0.4 (unitless) and the Q3 resolution (FWHM) was 0.7 (unitless). […]
# [2] = test system: plasma testosterone level in Brown-Norway rats; experiment: Oral administration (gavage) of peptides, plasma testosterone; type: in vivo; conditions: for average testosterone levels across doses: gavage ~10, 220, or 420 μg/kg, after two hrs, rats aged 82-131 days; for average testosterone levels: gavage ~10 μg/kg; for testosterone levels: oral gavage ~580 μg/kg
# Description: (§2) Peptides. Peptides were obtained from CanPeptide (Montreal, Quebec) with >95% purity. All peptides were dissolved in molecular grade, sterile double distilled water to obtain a 1 mM stock solution and stored at −20° C. Peptides used for oral screenings were prepared from 1 mM peptide stock and diluted in sterile tap water in a total volume of 1 mL. Peptides used for pharmacokinetic experiments were diluted at 10 mg/ml using sterile tap water. Some of the peptides were chemically modified after synthesis. The following table summarizes the peptides that have been tested:
# (§3) Animal handling, blood collections, surgical procedures, and oral administration of peptides. Brown-Norway rats aged 22-28, 36-42, or 50-56 days-old were purchased from Charles River Laboratories (Senneville, Quebec) and aged until needed. Rats were kept on a 12 L/12 D day cycle with lights on at 7 AM and access to food and water ad libitum.
# (§4) For all experiments, plasma samples were obtained via percutaneous jugular puncture and collected in EDTA KE/1.3 tubes (Sarstedt, Numbrecht, Germany, Cat #5072511). Blood collection time points are indicated in each figure legend. Samples were centrifuged at 1 300 RCF for 10 min, and the plasma was stored in 2 mL Wheaton glass vials (Fisher Scientific, Hampton, NH, Cat #03 337 21A) and kept at −20° C. until needed.
# as §1
# (§5) Plasma steroid measurements. Testosterone levels were measured using Cayman (Ann Arbor, MI) EIA kit Cat #582701, and corticosterone levels were measured using Cayman EIA kit Cat #501320. All samples were measured in duplicate according to the manufacturer's instructions. Samples were diluted until the average control levels fitted the middle of the standard curve. The number of animals used for each experiment is noted in the corresponding figure legend.
# [3] = Peptide stability in plasma; type: in vitro ADME, Brown-Norway rats; conditions: for half-life in plasma (rank order): 4 μM peptide (KVSQ 12.5 μM) in 100 μL rat plasma, 37° C., 1-120 minutes; for stability / degradation in plasma: in vitro rat plasma incubation
# Description: Peptide stability in plasma, oral pharmacokinetics, and quantification. For peptide stability experiments, plasma from Brown-Norway rats age 90-140 days was collected and stored at −20° C. until further use. The plasma was thawed, spun at 12 000 RPM for 10 min, and kept at 4° C. 4 μM of the various peptides were incubated with 100 μL of plasma that was warmed at 37° C. for 10 min before use. After 1, 15, 30, 60, 90 or 120 minutes, the plasma/peptide samples were crashed with 300 μL of 100% methanol, spun at 14 000 RPM for 10 min, and the supernatant collected. The methanol in the supernatant was evaporated and the samples were re-extracted. The final pellet was solubilized in 5 μL methanol followed by the addition of 100 μL of sterile double distilled water. The extracted samples were transferred to plastic tubes and placed in the autoloader of the mass spectrometer.
# The analytical instrumentation consisted of a Thermo-Scientific ISQ Quantiva Triple Quadrupole Mass Spectrometer (QQQ), incorporating a heated electrospray ionization (HESI) source, and a Thermo-Scientific UltiMate™ 3000 UHPLC system (including, UltiMate™ 3000 RS autosampler). Analytical conditions were developed using a reference standard in a solution containing 5 μM of the corresponding peptide. The chromatography was resolved by isocratic elution of a binary solvent system incorporating (A) 0.1% Formic Acid (aq) and (B) ACN+0.1% FA and using an Agilent Eclipse Plus™ C18 analytical column (100 mm×2.1 mm ID, 1.8 μm particle). A 5 μL injection volume and solvent flow rate of 150 μL/min were used. The MS/MS acquisition time was 7 min and total run time was 8.3 min/injection. The triple Quadrupole MS/MS instrumentation conditions were as follows: the HESI source voltage was 3200 V, the sheath gas […], auxiliary gas 20 L/min, sweep gas 2.0 L/min, the ion transfer temperature was 350° C., the vaporizer temperature was 350° C., the CID gas was 1.5 (mTorr) and the dwell time was 100 msec. The Q1 Resolution (FWHM) was 0.4 (unitless) and the Q3 resolution (FWHM) was 0.7 (unitless). The instrument ran in a selected reaction monitoring (SRM), positive ion detection mode at various collision energies (CE) for the following mass transitions: • Ac-RITQdS-NH2: p84 (m/z 645→m/z 295, m/z 396) • RdVTQ: p72 (m/z 503→m/z 211). • Ac-RdITQ-NH2: p87 (m/z 558→m/z 391, m/z 267) • RVTQ: p64 (m/z 503→m/z 211; m/z 503→m/z 357 and m/z 503→m/z 256) • KVSQ: p95 (m/z 461→m/z 129) and (m/z 461→m/z 234)
# [4] = test system: plasma corticosterone level in Brown-Norway rats; experiment: Oral administration (gavage) of peptides, plasma corticosterone; type: in vivo; conditions: gavage with increasing concentrations, 2 hrs
# Description: as §2, §3
# For all experiments, plasma samples were obtained via percutaneous jugular puncture and collected in EDTA KE/1.3 tubes (Sarstedt, Numbrecht, Germany, Cat #5072511). […]
# Plasma steroid measurements. Testosterone levels were measured using Cayman (Ann Arbor, MI) EIA kit Cat #582701, and corticosterone levels were measured using Cayman EIA kit Cat #501320. All samples were measured in duplicate according to the manufacturer's instructions. […]
# [5] = test system: plasma testosterone level in Brown-Norway rats; experiment: Subcutaneous osmotic pump infusion of tetrapeptides, plasma testosterone (Example I); type: in vivo
# Description: Osmotic pumps. Model 2006 osmotic pumps, infusing 0.15 μL/hr, were purchased from Alzet (Cupertino, CA). The peptide concentration loaded into the pumps was adjusted to deliver the doses indicated in each figure. The pump infusion rates varied by production lot and were adjusted accordingly. Pumps were loaded 24 hrs prior to surgical implantation under sterile conditions and were kept at 37° C. in PBS.
# as §3, §4
# Brown-Norway rats aged ˜29 day-old were implanted with osmotic infusion pumps in the interscapular region under general anesthesia with isoflurane following antisepsis using iodine. The surgical wound was closed with two to three staples that were removed a week after the surgery. Subcutaneous carprofen (Zoetis, Parsippany, NJ) was given before the surgical procedure and in the following two days for pain management.
# as §5
# [6] = test system: plasma testosterone level in Brown-Norway rats; experiment: Subcutaneous osmotic pump infusion of TV159-172 derivatives and N163-166, plasma testosterone (Example II); type: in vivo; conditions: 309 ng/kg/day, 7 days after implantation
# Description: (§6) Animal handling, serum, plasma, and intratesticular sample collection. Brown-Norway rats aged 36-42 days old were purchased from Charles River and aged until ˜60 days old. Rats were kept on a 12 L/12 D day cycle with lights on at 7 AM and had access to food and water ad libitum.
# (§7) Jugular samples were collected via percutaneous puncture and samples were collected in EDTA coated tubes (plasma) and centrifuged at 1,300 RCF for 10 min and stored in 2 mL Wheaton glass vials (Fisher Scientific, Hampton, NH, Cat #03 337 21A) and kept at −20° C. Animals were handled according to protocols approved by the McGill University Animal Care and Use Committee, which included standard operating procedures for the amount and frequency of blood sample collections.
# (§8) Hormone measurements. Testosterone levels were measured using Cayman (Ann Arbor, MI) EIA kit Cat #582701 and corticosterone levels were measured using Cayman EIA kit Cat #501320. Plasma fluid samples were diluted until controls fitted the middle of the standard curve used.
# (§9) Osmotic pumps. Alzet 2006 osmotic pumps were purchased from Alzet (Cupertino, CA) with an infusion rate of 0.15 μL/hr. The peptide concentration loaded into the pumps accounted for weight gain at the time of collection and was adjusted to deliver the doses indicated in each figure. The pump infusion rates varied by production lot and were adjusted accordingly. […]
# [7] = test system: plasma corticosterone level in Brown-Norway rats; experiment: Subcutaneous osmotic pump infusion of TV159-172 derivatives and N163-166, plasma corticosterone (Example II); type: in vivo; conditions: 40 days after implantation
# Description: as §6, §7, §8, §9
# [8] = samples at age 54 days (first round), ~370 ng/kg/day
compound,measurement,setting,value
CC[C@H](C)[C@H](NC(=O)[C@H](CCCNC(=N)N)NC(C)=O)C(=O)N[C@H](C(=O)N[C@@H](CCC(N)=O)C(=O)N[C@H](CO)C(N)=O)[C@@H](C)O [Ac-RITQdS-NH2] (Ac-RITQ[dS]-NH2),Tmax,"[1]; Brown-Norway, rat, plasma, read-out: time to peak concentration in blood (converted)",~15 min
same,average testosterone levels across doses,[2],increased average testosterone levels
same,average testosterone levels,"[2]; third screening, 2 hrs","increased, although not significantly"
same,half-life in plasma (rank order),[3],Ac-RITQdS-NH2>RdVTQ>Ac-RdITQ-NH2>RITQ>RVTQ>KVSQ
same,stability / degradation in plasma,[3],most stable peptide
CC[C@@H](C)[C@@H](NC(=O)[C@H](CCCNC(=N)N)NC(C)=O)C(=O)N[C@H](C(=O)N[C@@H](CCC(N)=O)C(N)=O)[C@@H](C)O [Ac-RdITQ-NH2] (Ac-R[dI]TQ-NH2),average testosterone levels across doses,[2],increased average testosterone levels
same,average testosterone levels,"[2]; third screening, 2 hrs","increased, although not significantly"
same,half-life in plasma (rank order),[3],Ac-RITQdS-NH2>RdVTQ>Ac-RdITQ-NH2>RITQ>RVTQ>KVSQ
CC(C)[C@H](NC(=O)[C@@H](N)CCCCN)C(=O)N[C@@H](CO)C(=O)N[C@@H](CCC(N)=O)C(=O)O [KVSQ] (H-KVSQ-OH),circulating peptide levels (detection),[1],not detected
same,average testosterone levels across doses,[2],increased average testosterone levels
same,average testosterone levels,"[2]; third screening, 2 hrs","increased, although not significantly"
same,half-life in plasma (rank order),[3],Ac-RITQdS-NH2>RdVTQ>Ac-RdITQ-NH2>RITQ>RVTQ>KVSQ
same,stability / degradation in plasma,[3],rapid degradation
CC[C@H](C)[C@H](NC(=O)[C@@H](N)CCCNC(=N)N)C(=O)N[C@H](C(=O)N[C@@H](CCC(N)=O)C(=O)O)[C@@H](C)O [RITQ] (H-RITQ-OH),"corticosterone levels, dose-response",[4],no corresponding significant changes
same,circulating testosterone levels,[5]; [8],non-significant increase
same,circulating testosterone levels,"[5]; samples at age 65 days (second round), ~330 ng/kg/day",significant increase
same,"testosterone levels, dose-response","[2]; gavage 10 μg/kg, 2 hrs",significant increase
same,"testosterone levels, dose-response","[2]; gavage ~220 μg/kg, 2 hrs",non-significant decrease
same,"testosterone levels, dose-response","[2]; gavage ~520 μg/kg, 2 hrs",significant increase
same,average testosterone levels,"[2]; third screening, 2 hrs","increased, although not significantly"
same,steroid (testosterone) levels,"[2]; third screening, gavage ~220 μg/kg, 2 hrs",decrease in steroid levels
same,half-life in plasma (rank order),[3],Ac-RITQdS-NH2>RdVTQ>Ac-RdITQ-NH2>RITQ>RVTQ>KVSQ
same,stability / degradation in plasma,[3],rapid time-dependent degradation
CC(C)[C@H](NC(=O)[C@@H](N)CCCNC(=N)N)C(=O)N[C@H](C(=O)N[C@@H](CCC(N)=O)C(=O)O)[C@@H](C)O [RVTQ] (H-RVTQ-OH),increase in plasma testosterone levels,"[5]; 377 ng/kg/d, ~54 day-old rats, vs water",two-fold
same,circulating peptide levels (detection),[1],not detected
same,testosterone levels,[2]; 3 hrs sampling time,did not show an effect
same,testosterone levels,[6],significantly increased
same,half-life in plasma (rank order),[3],Ac-RITQdS-NH2>RdVTQ>Ac-RdITQ-NH2>RITQ>RVTQ>KVSQ
same,stability / degradation in plasma,[3],rapid time-dependent degradation
same,corticosterone levels,[7]; 23 ng/kg/day,decreased
same,corticosterone levels,[7]; treatment inducing testosterone formation (309 ng/kg/day),not affected
CC(C)[C@@H](NC(=O)[C@@H](N)CCCNC(=N)N)C(=O)N[C@H](C(=O)N[C@@H](CCC(N)=O)C(=O)O)[C@@H](C)O [RdVTQ] (H-R[dV]TQ-OH),"corticosterone levels, dose-response",[4],no corresponding significant changes
same,"testosterone levels, dose-response","[2]; gavage 10 μg/kg, 2 hrs",trend to increase
same,"testosterone levels, dose-response","[2]; gavage 800 μg/kg, 2 hrs",significant increases
same,"testosterone levels, dose-response","[2]; gavage ~400 μg/kg, 2 hrs",significant increases
same,average testosterone levels across doses,[2],increased average testosterone levels
same,"average testosterone levels, dose-response","[2]; gavage, all doses tested, 2 hrs",increased the average testosterone levels at all doses tested
same,average testosterone levels,"[2]; third screening, 2 hrs","increased, although not significantly"
same,half-life in plasma (rank order),[3],Ac-RITQdS-NH2>RdVTQ>Ac-RdITQ-NH2>RITQ>RVTQ>KVSQ
Ac-KdITQ-NH2,average testosterone levels,"[2]; third screening, 2 hrs","increased, although not significantly"
KITQ,circulating testosterone levels,[5]; [8],significant increase
RVTQdS-NH2,testosterone levels,[2]; 2 hr post-treatment,best significant increase in testosterone levels
same,testosterone levels,[2]; 3 hrs sampling time,significantly increased testosterone levels
